Consider 34 compounds from US20260200926A1, “TREM2 MODULATORS” (Muna Therapeutics ApS, priority 2022, published 2026).

This assay concerns the target T1, Human TREM2 (Homo sapiens, UniProt Q9NZC2).
T1 construct: expressed in transfected cells
Put plainly: Human TREM2 activity: cellular phosphorylation of Syk (AlphaLISA SureFire Ultra p-SYK) in HEK293/DAP12+TREM2 stable cell line. The class given is cell-based. Conditions: for EC50: phospho-Syk AlphaLISA signal, HEK293/DAP12+TREM2 cells, concentration giving 50% of maximal response, read-out: EC50. The method in brief:
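HEK293 cells stably co-expressing human TREM2 and DAP12 were seeded at 10,000 cells/well and used 20–24 h later. Compounds were tested at 8 concentrations (top 100 μM, 1:6 steps, 0.5% DMSO) for 30 min at 37 °C. Syk phosphorylation at Tyr525/526 was read in lysates by AlphaLISA SureFire Ultra.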
On the technique in general: In Alpha technology, singlet oxygen from a donor bead excites a nearby acceptor bead.

The mark [1] stands for this setting: HEK293, maximal response relative to reference agonist example 1B (remaining examples), read-out: Emax.

Read-outs that look alike come from different tables or passages of the source.

T1 sequence (Q9NZC2 19-230): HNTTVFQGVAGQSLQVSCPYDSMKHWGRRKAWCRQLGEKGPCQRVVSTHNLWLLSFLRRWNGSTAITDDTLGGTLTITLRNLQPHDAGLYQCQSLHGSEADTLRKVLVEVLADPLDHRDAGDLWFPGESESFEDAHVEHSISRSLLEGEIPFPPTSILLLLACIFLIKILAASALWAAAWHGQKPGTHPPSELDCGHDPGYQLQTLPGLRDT
T1 sequence (O43914 22-113 partner): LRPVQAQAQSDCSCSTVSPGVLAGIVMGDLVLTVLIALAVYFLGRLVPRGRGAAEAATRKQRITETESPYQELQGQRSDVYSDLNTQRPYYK

One may read the Emax as the maximal effect, on the per cent scale that the assay sets. One may read the EC50 as the concentration needed to bring the measured effect to its halfway point. For the compound `Cc1nc(C2CN(c3nc(-c4ccc(Cl)cc4F)c4nc(C)n(C)c(=O)c4n3)CCO2)no1` (centres unmarked) [Example 50, 8-(4-chloro-2-fluorophenyl)-2,3-dimethyl-6-(2-(5-methyl-1,2,4-oxadiazol-3-yl)morpholino)pyrimido[5,4-d]pyrimidin-4(3H)-one], the EC50 lay within 10 to 100 nM. For the same compound, the maximal effect (Emax) under setting [1] is less than 75%.

Regarding `Cc1nc2c(-c3ccc(C(F)(F)F)cc3F)nc(N3CCOC(c4cnn(C)c4)C3)nc2c(=O)n1C` (centres unmarked) [Example 10, 8-(2-fluoro-4-(trifluoromethyl)phenyl)-2,3-dimethyl-6-(2-(1-methyl-1H-pyrazol-4-yl)morpholino)pyrimido[5,4-d]pyrimidin-4(3H)-one], the concentration for a half-maximal effect (EC50) was in the range of 100 to 1000 nM. For the same compound, the Emax under setting [1] lay within 75 to 110%.

As to `Cc1nc2c(-c3ccc(C(F)(F)F)nc3)nc(N3CCO[C@H](c4cnn(C)c4)C3)nc2c(=O)n1C` (single isomer, unassigned) [Example 28A], the EC50 is more than 1000 nM. Besides, the maximal response (Emax) under setting [1] lay in the range of 75 to 110%.

For `Cc1nc2c(-c3ccc(Cl)cc3F)nc(N3C[C@@H](c4cnn(C)c4)OC(C)(C)C3)cc2c(=O)n1C` (single isomer, unassigned) [Example 112A], the EC50 was 10 to 100 nM. The Emax under setting [1] lay in the range of 75 to 110%.

Consider `Cc1nc2c(C3CCNCC3)nc(N3CCOC(c4cnn(C)c4)C3)nc2c(=O)n1C` (centres unmarked) [Example 87, 2,3-dimethyl-6-(2-(1-methyl-1H-pyrazol-4-yl)morpholino)-8-(piperidin-4-yl)pyrimido[5,4-d]pyrimidin-4 (3H)-one], for which the concentration for a half-maximal effect (EC50) was more than 1000 nM. Moreover, under setting [1], the maximal effect (Emax) is 75 to 110%.

Consider `Cc1nc2c(-c3ccc(Cl)cc3F)nc([C@@H]3CCO[C@H](c4cnn(C5CC5)c4)C3)cc2c(=O)n1C` (single isomer, unassigned) [Example 140A], for which the concentration giving a half-maximal response (EC50) lay in the range of 100 to 1000 nM. Under “HEK293”, the maximum response (Emax) was less than 75%.

As to `Cc1cnccc1OC1CCN(c2nc(-c3ccc(Cl)cc3F)c3nc(C)n(C)c(=O)c3n2)CC1` [Example 84, 8-(4-chloro-2-fluorophenyl)-2,3-dimethyl-6-(4-((3-methylpyridin-4-yl)oxy)piperidin-1-yl)pyrimido[5,4-d]pyrimidin-4(3H)-one], the 50% effective concentration (EC50) is 100 to 1000 nM. Besides, the Emax under setting [1] is less than 75%.

`Cc1cc([C@H]2CN(c3cc4c(=O)n(C)c(C)nc4c(-c4ccc(F)cc4F)n3)CCO2)ccn1` (single isomer, unassigned) [Example 136B]: the concentration for a half-maximal effect (EC50) was in the range of 100 to 1000 nM. The Emax under setting [1] was less than 75%.

With `Cc1cc([C@@H]2CN(c3nc(-c4ccc(F)cc4F)c4nc(C)n(C)c(=O)c4n3)C[C@H](C)O2)ccn1` (single isomer, unassigned) [Example 175A], the EC50 lay in the range of 1 to 10 nM. Under setting [1], the Emax was in the range of 75 to 110%.

For `Cc1nc2c(-c3cc(F)c(F)cc3F)nc(N3C[C@@H](c4cnn(C)c4)OC4(CCC4)C3)cc2c(=O)n1C` (single isomer, unassigned) [Example 152A], the EC50 lay within 100 to 1000 nM. For the same compound, under setting [1], the maximal response (Emax) was 75 to 110%.

As to `Cc1cc([C@H]2CN(c3nc(-c4ccc(F)cc4F)c4nc(C(F)(F)F)n(C)c(=O)c4n3)C[C@@H](C)O2)ccn1` (single isomer, unassigned) [Example 191B], the EC50 was in the range of 1 to 10 nM. Also, under setting [1], the Emax fell in the range of 75 to 110%.

On to `Cc1nc2c(-c3ccc(Cl)cc3F)nc(N3C[C@@H](c4cnn(C)c4)OC4(CC4)C3)cc2c(=O)n1C` (single isomer, unassigned) [Example 144A], for which the EC50 was in the range of 1 to 10 nM. The maximal effect (Emax) under setting [1] is 75 to 110%.

Consider `Cc1cc([C@H]2CN(c3cc4c(=O)n(C)c(C)nc4c(-c4ccc(Cl)cc4F)n3)CCO2)ccn1` (single isomer, unassigned) [Example 135B], for which the EC50 was 100 to 1000 nM. In addition, under setting [1], the maximal response (Emax) lay within 75 to 110%.

For `Cc1nc2c(-c3ccc(C(F)(F)F)cc3F)nc(N3C[C@H](c4cnn(C)c4)OC4(CC4)C3)cc2c(=O)n1C` (single isomer, unassigned) [Example 145B], the 50% effective concentration (EC50) fell in the range of 10 to 100 nM. Also, the maximal response (Emax) under setting [1] was less than 75%.

`Cn1cc([C@H]2CN(c3nc(-c4ccc(Cl)cc4F)c4nc(C(F)(F)F)n(C)c(=O)c4n3)CCO2)cn1` (single isomer, unassigned) [Example 103]: the EC50 fell in the range of 1 to 10 nM. Besides, the maximum response (Emax) under setting [1] was in the range of 75 to 110%.

Take `Cc1nc2c(-c3ccc(Cl)cc3F)nc(N3CCCc4ccncc4C3)nc2c(=O)n1C` [Example 86, 8-(4-chloro-2-fluorophenyl)-2,3-dimethyl-6-(5,6,7,9-tetrahydro-8H-pyrido[3,4-c]azepin-8-yl)pyrimido[5,4-d]pyrimidin-4(3H)-one]: the 50% effective concentration (EC50) was more than 1000 nM. The Emax under setting [1] was less than 75%.

As to `Cc1nc2c(-c3ccc(F)cc3F)nc(N3C[C@H](c4cnn(C)c4)OC(F)(F)C3)nc2c(=O)n1C` (single isomer, unassigned) [Example 156B], the EC50 is 10 to 100 nM. Further, the maximal effect (Emax) under setting [1] lay within 75 to 110%.

With `Cn1cc(C2CN(c3nc(-c4ccc(Cl)cc4F)c4ncn(C)c(=O)c4n3)CCO2)cn1` (centres unmarked) [Example 187, 8-(4-chloro-2-fluorophenyl)-3-methyl-6-(2-(1-methyl-1H-pyrazol-4-yl)morpholino)pyrimido[5,4-d]pyrimidin-4 (3H)-one], the EC50 was in the range of 10 to 100 nM. In addition, under setting [1], the maximal response (Emax) was less than 75%.

As to `Cc1cc([C@@H]2CN(c3nc(-c4ccc(F)cc4F)c4nc(C(F)(F)F)n(C)c(=O)c4n3)CCO2)ccn1` (single isomer, unassigned) [Example 154A], the EC50 was less than 1 nM. Besides, under setting [1], the Emax lay in the range of 75 to 110%.

With `Cc1nc2c(-c3ccc(F)cc3F)nc(N3C[C@@H](C)O[C@@H](c4cnn(C5CC5)c4)C3)nc2c(=O)n1C` (single isomer, unassigned) [Example 177B], the concentration giving a half-maximal response (EC50) lay within 1 to 10 nM. Also, under setting [1], the Emax was in the range of 75 to 110%.

With `Cc1nc2c(-c3ccc(Cl)cc3F)nc(N3CCOC4(CCN(C)CC4)C3)nc2c(=O)n1C` [Example 56, 8-(4-chloro-2-fluorophenyl)-2,3-dimethyl-6-(9-methyl-1-oxa-4,9-diazaspiro[5.5]undecan-4-yl)pyrimido[5,4-d]pyrimidin-4(3H)-one], the half-maximal effective concentration (EC50) is more than 1000 nM. Under setting [1], the Emax was less than 75%.

`Cc1nc2c(C3CC4(C3)CC(F)(F)C4)nc(N3CCOC(c4cnn(C)c4)C3)nc2c(=O)n1C` (centres unmarked) [Example 72, 8-(6,6-difluorospiro[3.3]heptan-2-yl)-2,3-dimethyl-6-(2-(1-methyl-1H-pyrazol-4-yl)morpholino)pyrimido[5,4-d]pyrimidin-4 (3H)-one]: the EC50 is 100 to 1000 nM. Besides, under setting [1], the maximal effect (Emax) lay within 75 to 110%.

Turning to `Cn1c(C(F)(F)F)nc2c(-c3ccc(F)cc3F)nc([C@H]3CCO[C@@H](c4cnn(C5CC5)c4)C3)cc2c1=O` (single isomer, unassigned) [Example 197B], the EC50 fell in the range of 1 to 10 nM. Under setting [1], the maximal response (Emax) was less than 75%.

With `Cc1nc2c(-c3ccc(Cl)cc3F)cc(N3C[C@H](c4cnn(C)c4)OC(C)(C)C3)cc2c(=O)n1C` (single isomer, unassigned) [Example 117B], the EC50 is 100 to 1000 nM. Also, the Emax under setting [1] is less than 75%.

For the compound `Cc1cc([C@H]2CN(c3cc4c(=O)n(C)c(C)nc4c(-c4ccc(Cl)cc4F)n3)CC(C)(C)O2)ccn1` (single isomer, unassigned) [Example 172B], the EC50 lay in the range of 1 to 10 nM. For the same compound, the Emax under setting [1] lay within 75 to 110%.

On to `Cc1nc2c(-c3ccc(C#N)cc3F)nc(N3C[C@@H](c4cnn(C5CC5)c4)O[C@@H](C)C3)cc2c(=O)n1C` (single isomer, unassigned) [Example 200A], for which the concentration giving a half-maximal response (EC50) is less than 1 nM. Moreover, under setting [1], the Emax lay within 75 to 110%.

Regarding `Cc1cc([C@H]2CN(c3nc(-c4ccc(C(F)(F)F)cc4F)c4nc(C)n(C)c(=O)c4n3)CC(C)(C)O2)ccn1` (single isomer, unassigned) [Example 124B], the EC50 lay in the range of 1 to 10 nM. The Emax under setting [1] lay in the range of 75 to 110%.

Take `Cc1nc2c(-c3ccc(Cl)cc3F)nc(N3CCOC(c4cn(C)nn4)C3)nc2c(=O)n1C` (centres unmarked) [Example 73, 8-(4-chloro-2-fluorophenyl)-2,3-dimethyl-6-(2-(1-methyl-1H-1,2,3-triazol-4-yl)morpholino)pyrimido[5,4-d]pyrimidin-4 (3H)-one]: the EC50 was 100 to 1000 nM. The Emax under setting [1] was in the range of 75 to 110%.

For the compound `Cc1nc2c(-c3cc(F)c(F)cc3F)nc(N3CCO[C@H](c4cnn(C)c4)C3)nc2c(=O)n1C` (single isomer, unassigned) [Example 27A], the concentration for a half-maximal effect (EC50) fell in the range of 10 to 100 nM. For the same compound, under setting [1], the maximal effect (Emax) was less than 75%.

In the case of `Cc1nc2c(-c3ccc(Cl)cc3F)nc(N3C[C@@H](C)O[C@@H](c4cnn(C5CC5)c4)C3)nc2c(=O)n1C` (single isomer, unassigned) [Example 178B], the concentration for a half-maximal effect (EC50) was 1 to 10 nM. In addition, the Emax under setting [1] was in the range of 75 to 110%.

Consider `Cc1cc([C@H]2CN(c3cc4c(=O)n(C)c(C)nc4c(-c4ccc(C(F)(F)F)cc4F)n3)CCO2)ccn1` (single isomer, unassigned) [Example 137B], for which the concentration for a half-maximal effect (EC50) was 100 to 1000 nM. In addition, the Emax under setting [1] is 75 to 110%.

For `Cc1nc2c(nc(N3CCO[C@@H](c4cnn(C)c4)C3)nc2[C@H]2CC[C@H](C)CC2)c(=O)n1C` (single isomer, unassigned) [Example 71B], the EC50 was in the range of 10 to 100 nM. The Emax result (maximal response relative to reference agonist example 1B (remaining examples)) is reported as “+ (<75%)”.

Regarding `Cc1nc2c(-c3ccc(F)cc3Cl)nc(N3CCOC(c4cnn(C)c4)C3)nc2c(=O)n1C` (centres unmarked) [Example 70, 8-(2-chloro-4-fluorophenyl)-2,3-dimethyl-6-(2-(1-methyl-1H-pyrazol-4-yl)morpholino)pyrimido[5,4-d]pyrimidin-4 (3H)-one], the EC50 was more than 1000 nM. In addition, the Emax under setting [1] was less than 75%.

As to `Cc1cc([C@H]2C[C@@H](c3nc(-c4ccc(Cl)cc4F)c4nc(C)n(C)c(=O)c4n3)CCO2)ccn1` (single isomer, unassigned) [Example 94], the EC50 fell in the range of 1 to 10 nM. Besides, the Emax under setting [1] was 75 to 110%.
